Data reported in PMC2192493 (The Journal of Experimental Medicine, 1996).
One block for each substance: values may come before it.

Assays:
H-2Kd [1] = target: T1, H-2Kd (Mus musculus, UniProt P01902); experiment: Competitive inhibition of 125I-LLO; type: binding; conditions: for binding to H-2Kd (in words): peptide-binding inhibition experiments, Fig. 1
H-2Kd [2] = target: T1, H-2Kd; conditions: cited from earlier work
Meth A = experiment: 4-h 51Cr release assay of vaccine-induced effectors, Meth A targets; type: cell-based, mouse; conditions: 239CM-induced CTL; separate experiment, data not shown
CMS1 = experiment: 4-h 51Cr release assay of vaccine-induced effectors, CMS1 targets; type: cell-based, mouse; conditions: separate experiment, data not shown
[3] = cited from earlier work

T1 sequence (P01902 whole entry, looked up): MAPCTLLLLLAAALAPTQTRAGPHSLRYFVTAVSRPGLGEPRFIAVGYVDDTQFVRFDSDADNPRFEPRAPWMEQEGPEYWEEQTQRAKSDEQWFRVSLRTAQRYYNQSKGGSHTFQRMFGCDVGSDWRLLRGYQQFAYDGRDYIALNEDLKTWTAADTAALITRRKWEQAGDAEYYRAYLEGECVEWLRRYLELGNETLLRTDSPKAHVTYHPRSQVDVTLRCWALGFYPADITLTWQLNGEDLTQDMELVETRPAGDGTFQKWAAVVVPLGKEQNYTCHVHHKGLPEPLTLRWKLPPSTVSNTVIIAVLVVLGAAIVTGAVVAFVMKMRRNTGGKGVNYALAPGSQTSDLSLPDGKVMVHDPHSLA

- binding to H-2Kd (in words) (H-2Kd [1]): capable of binding to H-2Ka
Substance: 234CW: wild-type peptide p53(232-240) (KYMCNSSCM; UniProt P02340 232-240, looked up, fragment)

- relative binding to H-2Kd (in words) (H-2Kd [1]; compared with other peptides in the same assay): comparable to that of the parent peptide
Substance: GFKDGNEYI [LLO(Y2F), reference compound]

Substance: GYKDGNEYI [LLO]
- binding affinity to H-2Kd (in words) (H-2Kd [2]): high affinity

Substance: KYMCNSSFM [239CM]
- binding to H-2Kd (in words) (H-2Kd [1]): capable of binding to H-2Ka
- induction of CTL reactive against Meth A (Meth A): not Meth A
- induction of CTL reactive against CMS1 (CMS1): induced CTL reactive against CMS1

Substance: LFCQLAKTC [132CW]
- immunogenicity (in words) [3]: lack of immunogenicity

Substance: LFFQLAKTC [132CM]
- immunogenicity (in words) [3]: lack of immunogenicity

Substance: MTEVVRtkCP [168CW]
- immunogenicity (in words) [3]: lack of immunogenicity

Substance: MTGVVR.R.CP [168CM]
- immunogenicity (in words) [3]: lack of immunogenicity
